{
  "source": "patent US10145848B2",
  "about": "“Small-molecule hydrophobic tagging of fusion proteins and induced degradation of same” (YALE UNIVERSITY, priority 2010, dated 2018)",
  "key": {"[1]": {"system": "NIH-3T3 cells expressing HA-HaloTag-H-RasG12V", "assay": "Tumor formation assay in nude mice", "type": "in vivo", "settings": "25 mg/kg or 100 mg/kg daily IP", "description": "One hundred thousand NIH-3T3 cells expressing HA-HaloTag-H-RasG12V were injected into the flank of anesthetized 6-week old female nu/nu nude mice (Charles River Laboratories). Two hours later, the mice were IP injected with either vehicle (10 μl, volume, with 5 μl, DMSO and 5 μl, of Cremophor EL), 25 mg/kg HyT13 or 100 mg/kg HyT13. The drug injections continued daily until the end of the experiment. Upon the appearance of tumors on day 7, the tumors were measured daily with calipers, and their volumes were calculated using the formula: a(b)^2/2, where a and b represent the longest and shortest diameters of the tumor, respectively.\nTo examine whether the HaloTag:HyT13 based system could be used in mouse models to relieve the H-RasG12V-driven tumor burden, we first evaluated the pharmacokinetics of HyT13. We performed a maximum tolerated dose experiment with HyT13 in nude mice at doses up to 100 mg/kg over a 14-day treatment regimen. […] Next, we sought to determine the serum bioavailability of HyT13 following injections. HyT13 was administered at 25 mg/kg by intraperitoneal (IP) injection into Swiss Webster mice and the serum was collected at 1 and 24 hours post-injection. At 1 hour post HyT13 administration the blood serum concentration was approximately 2 μM, and by 24 hours the HyT13 concentration had dropped to about 500 nM (FIG. 10). […]"}, "[2]": {"biological_target": "T1, HA-EGFP-HaloTag fusion protein (Rhodococcus rhodochrous, UniProt P0A3G2, C176G/H272F/K175M/Y273L)", "T1 construct": "The HaloTag protein was obtained from pHT2 vector (Promega); expressed in transfected cells", "assay": "Immunoblotting of HA-EGFP-HaloTag in Flp-In 293 cells", "type": "cell-based", "description": "Flp-In 293 cells expressing HA-EGFP-HaloTag were treated with indicated concentrations of HyT13 for 24 hours. The lysates were probed with anti-HA and anti-β-actin antibodies, with β-actin serving as a loading control. Shown is quantification of three separate experiments, with error bars representing SEM.\nFlp-In 293 cells expressing HA-EGFP-HaloTag cells were treated for the indicated times with 1 μM HyT13 and the lysates were probed with anti-HA and anti-β-actin antibodies. The rightmost sample was treated with HyT13 for 24 hours, after which HyT13-free media was provided for 24 hours. Shown is quantification of three separate experiments, with error bars representing SEM.\nThe indicated cells were washed twice with cold PBS and the cells were lysed in lysis buffer (1×PBS, 1% NP-40, 1 mM EDTA, 40 mM HEPES) with protease inhibitors. The lysates were cleared by centrifugation at 10,000 g for 5 min. The total protein concentration was determined by Bradford assay and 50 μg of protein was loaded onto an 8% Bis-Tris gel. To solubilize polyubiquitinated and aggregated proteins upon proteasome inhibition^42 samples generated for FIG. 12d were lysed with a SDS lysis buffer (1×PBS, 1% NP-40, 1% SDS, 1% sodium deoxycholate, 1 mM EDTA, 40 mM HEPES) with protease inhibitors. The blots were processed by standard procedures with indicated antibodies, and the band intensities were quantified by ImageJ.\nAs the luciferase assay relied on the loss-of-activity of the luciferase-HaloTag fusion protein, we wanted to determine whether the decrease in luciferase activity resulted from the degradation of the entire fusion protein or perhaps simply inhibition of luciferase activity. We generated a stable Flp-In 293 cell line with a single integration site containing HA-EGFP-HaloTag fusion protein, and employed this cell line to perform kinetic studies with HyT13. […] Consistent with our previous observations, treatment of these cells with 1 μM of HyT13 for 24 hours reduced the mean fluorescence intensity of cells almost 7-fold. Together, these findings provide the first experimental evidence that hydrophobic tagging represents a viable strategy for the control of protein levels."}},
  "data": [
    {"smiles": "O=C(CC12CC3CC(CC(C3)C1)C2)NCCOCCOCCCCCCCl", "note": "[HyT13, 2-((3r,5r,7r)-Adamantan-1-yl)-N-(2-(2-((6-chlorohexyl)oxy)ethoxy)ethyl)acetamide]", "values": [
      {"measurement": "tumor size relative to vehicle treated mice (times smaller)", "setting": "[1]", "value": 6, "unit": "times"},
      {"measurement": "time to 50% degradation", "setting": "[2]; 1 μM HyT13", "value": "≤ 1.5", "unit": "h"},
      {"measurement": "time to full degradation effect", "setting": "[2]; 1 μM HyT13", "value": "≤ 8", "unit": "h"},
      {"measurement": "protein level after removal of compound", "setting": "[2]; 1 μM for 24 hours, then removed for 24 hours", "value": "recovered to half the starting levels"},
      {"measurement": "concentration at which maximal degradation effect is achieved", "setting": "[2]; 24 hours, immunoblotting", "value": 100, "unit": "nM"},
      {"measurement": "DC50", "setting": "[2]; read-out: IC50 of fusion protein degradation, 24 hours, Flp-In 293 cells", "value": 21, "unit": "nM"}
    ]}
  ]
}
